Laboratory results reported in patent US20170298055A1, “sGC STIMULATORS” (IRONWOOD PHARMACEUTICALS, INC., priority 2014, published 2017).

Biological target: T1, soluble guanylate cyclase (sGC) (Homo sapiens, UniProt Q02108+Q02153)
T1 construct: endogenously expressing soluble guanylate cyclase (sGC); endogenous in cells; host or cells: HEK293
T1 sequence (Q02153 1-619): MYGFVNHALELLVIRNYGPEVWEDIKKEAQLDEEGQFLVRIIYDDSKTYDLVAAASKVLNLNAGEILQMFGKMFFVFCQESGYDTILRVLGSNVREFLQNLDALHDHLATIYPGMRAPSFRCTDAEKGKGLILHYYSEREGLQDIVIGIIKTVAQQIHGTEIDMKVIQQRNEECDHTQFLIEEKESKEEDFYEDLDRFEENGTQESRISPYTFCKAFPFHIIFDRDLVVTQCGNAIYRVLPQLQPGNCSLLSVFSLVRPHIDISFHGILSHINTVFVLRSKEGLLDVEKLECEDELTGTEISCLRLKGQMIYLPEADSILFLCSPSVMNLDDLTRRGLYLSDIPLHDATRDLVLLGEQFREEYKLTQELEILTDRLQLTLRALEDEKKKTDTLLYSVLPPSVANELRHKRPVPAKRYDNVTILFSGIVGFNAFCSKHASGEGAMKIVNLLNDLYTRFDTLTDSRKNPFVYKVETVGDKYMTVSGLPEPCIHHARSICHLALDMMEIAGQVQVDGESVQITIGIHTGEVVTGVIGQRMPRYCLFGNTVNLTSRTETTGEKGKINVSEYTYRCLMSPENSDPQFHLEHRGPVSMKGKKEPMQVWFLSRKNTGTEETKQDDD
T1 sequence (Q02108 1-690): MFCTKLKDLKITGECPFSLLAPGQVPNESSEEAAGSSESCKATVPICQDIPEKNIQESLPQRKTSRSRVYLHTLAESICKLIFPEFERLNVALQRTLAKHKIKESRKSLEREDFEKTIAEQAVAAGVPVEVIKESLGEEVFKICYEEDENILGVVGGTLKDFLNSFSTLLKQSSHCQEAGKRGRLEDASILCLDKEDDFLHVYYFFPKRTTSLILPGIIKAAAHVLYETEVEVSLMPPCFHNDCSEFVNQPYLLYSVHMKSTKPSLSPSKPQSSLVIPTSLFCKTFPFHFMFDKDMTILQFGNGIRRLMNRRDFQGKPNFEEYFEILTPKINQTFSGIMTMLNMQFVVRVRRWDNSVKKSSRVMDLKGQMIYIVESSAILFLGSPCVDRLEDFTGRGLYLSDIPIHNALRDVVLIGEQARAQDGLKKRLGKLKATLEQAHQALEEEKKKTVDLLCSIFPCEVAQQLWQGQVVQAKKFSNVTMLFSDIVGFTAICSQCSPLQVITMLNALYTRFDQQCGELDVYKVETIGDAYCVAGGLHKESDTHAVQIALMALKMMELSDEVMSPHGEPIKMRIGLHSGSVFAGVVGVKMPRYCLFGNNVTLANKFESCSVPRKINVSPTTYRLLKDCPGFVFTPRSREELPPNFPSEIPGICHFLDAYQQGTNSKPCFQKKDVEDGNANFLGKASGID
Assay: sGC-HEK-cGMP assay, LC/MS detection, with SNP incubation (Example 2A)
Format: cell-based
Conditions: HEK293 cells, in the presence of 10 μM SNP; top of concentration-response curve not fitted to 100%; read-out: sGC_HEK_LCMS uEC50 (nM) Binned (unconstrained)
Description: Human embryonic kidney cells (HEK293), endogenously expressing soluble guanylate cyclase (sGC), were used to evaluate the activity of test compounds. Compounds stimulating the sGC receptor should cause an increase in the intracellular concentration of cGMP. HEK 293 cells were seeded in Dulbecco's Modification of Eagle's Medium supplemented with fetal bovine serum (10% final) and L-glutamine (2 mM final) in a 200 μL volume at a density of 1×10^5 cells/well in a poly-D-lysine coated 96 well flat bottom plate and grown overnight at 37° C. Medium was aspirated and cells were washed with 1× Hank's Buffered Saline Salt Solution (200 μL). Cells were then incubated for 15 minutes at 37° C. with 0.5 mM 3-isobutyl-1-methylxanthine (200 μL). Test article and sodium nitroprusside were then added to the assay mixture (2 μL each) and incubated at 37° C. for 10 minutes. After the 10 minute incubation, the assay mixture was aspirated and 0.1M HCl (200 μL) was added to the cells. The plate was incubated at 4° C. for 30 minutes in the 0.1M HCl to stop the reaction and lysed the cells. The plates were then centrifuged at 1,200 g for 5 minutes at room temperature. Supernatants were collected and transferred to a new flat bottom 96 well plate for analysis. Vehicle controls were carried out using DMSO (1%). A known sGC stimulator, BAY 41-2272, was used as the positive control. Samples were diluted with an equal volume of 1 M Ammonium Acetate (pH 7) to neutralize samples for better chromatography. A 2× cGMP standard curve was prepared in 0.1 M HCl and then diluted with an equal volume of 1 M Ammonium Acetate, with the following final concentrations in nM: 1024, 512, 256, 128, 64, 32, 16, 8, 4, 2, 1. cGMP concentrations were determined from each sample using the LC/MS conditions (Table 2 below) and calculated standard curve. EC50 values were calculated from concentration-response curves generated with GraphPad Prism Software.

EC50 | SMILES
100 to 1000 nM | OCCOc1nc(-c2cc(-c3ccon3)n(Cc3ccccc3F)n2)ncc1F [Compound I-1]
100 to 1000 nM | CN(C)CCOc1nc(-c2cc(-c3ccon3)n(Cc3ccccc3F)n2)ncc1F [Compound I-2]
